Data on ten molecules can be found in ChEMBL document CHEMBL1138676, “Liver-selective glucocorticoid antagonists: a novel treatment for type 2 diabetes” (J Med Chem, 2004).

One may read the Ki as a measure of affinity in units of concentration, obtained from inhibition or displacement. The inhibition is the change of the read-out against control, counted positive when it falls. Broadly, the Inhibition is the relative decrease from the control value, in per cent.

Molecules are shown by their SMILES.

The target in experiment [1] is T1, Glucocorticoid receptor (Homo sapiens, UniProt P04150).
T1 sequence (P04150 whole entry): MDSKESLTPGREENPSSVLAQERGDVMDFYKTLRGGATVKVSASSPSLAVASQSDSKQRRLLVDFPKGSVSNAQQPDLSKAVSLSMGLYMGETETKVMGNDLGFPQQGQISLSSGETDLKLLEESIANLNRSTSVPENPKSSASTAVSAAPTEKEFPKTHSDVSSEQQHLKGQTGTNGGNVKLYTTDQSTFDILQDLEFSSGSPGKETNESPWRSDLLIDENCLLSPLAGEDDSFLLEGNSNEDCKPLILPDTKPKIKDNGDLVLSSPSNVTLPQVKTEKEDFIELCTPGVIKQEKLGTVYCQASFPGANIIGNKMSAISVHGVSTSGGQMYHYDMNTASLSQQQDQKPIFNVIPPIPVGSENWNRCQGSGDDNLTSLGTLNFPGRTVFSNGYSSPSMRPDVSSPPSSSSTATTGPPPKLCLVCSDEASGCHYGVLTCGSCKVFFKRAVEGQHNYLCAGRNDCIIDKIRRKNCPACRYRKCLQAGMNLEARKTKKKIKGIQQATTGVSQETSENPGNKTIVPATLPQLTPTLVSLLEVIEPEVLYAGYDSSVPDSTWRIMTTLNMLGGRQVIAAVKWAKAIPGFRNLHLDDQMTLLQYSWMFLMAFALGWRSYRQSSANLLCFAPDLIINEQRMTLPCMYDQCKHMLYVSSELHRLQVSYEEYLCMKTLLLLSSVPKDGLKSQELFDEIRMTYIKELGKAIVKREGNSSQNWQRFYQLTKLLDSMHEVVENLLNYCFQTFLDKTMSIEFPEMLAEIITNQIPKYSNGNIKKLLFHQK
Briefly: Inhibition of glucocorticoid receptor dependent alkaline phosphatase activity. It is filed as functional.

Experiment [2] addresses T1, Glucocorticoid receptor. Briefly: Inhibition of human glucocorticoid receptor.
For experiment [3], the target named is Glucocorticoid receptor (Rattus norvegicus) (UniProt P06536). Briefly: Inhibition of glucocorticoid receptor mediated tyrosine aminotransferase activity. More on the design: concentration or dose not given beside the values. The settings on record: concentration not given here.
For experiment [4] the target is unchanged. Nature of the experiment: Inhibition of glucocorticoid receptor mediated tyrosine amino transferase activity.
Experiment [5] can be described thus: Inhibitory activity against rat lymphocytes. The arrangement: concentration or dose not given beside the values.
A further experiment deals with T2, Progesterone receptor (Homo sapiens, UniProt P06401).
T2 sequence (P06401 whole entry): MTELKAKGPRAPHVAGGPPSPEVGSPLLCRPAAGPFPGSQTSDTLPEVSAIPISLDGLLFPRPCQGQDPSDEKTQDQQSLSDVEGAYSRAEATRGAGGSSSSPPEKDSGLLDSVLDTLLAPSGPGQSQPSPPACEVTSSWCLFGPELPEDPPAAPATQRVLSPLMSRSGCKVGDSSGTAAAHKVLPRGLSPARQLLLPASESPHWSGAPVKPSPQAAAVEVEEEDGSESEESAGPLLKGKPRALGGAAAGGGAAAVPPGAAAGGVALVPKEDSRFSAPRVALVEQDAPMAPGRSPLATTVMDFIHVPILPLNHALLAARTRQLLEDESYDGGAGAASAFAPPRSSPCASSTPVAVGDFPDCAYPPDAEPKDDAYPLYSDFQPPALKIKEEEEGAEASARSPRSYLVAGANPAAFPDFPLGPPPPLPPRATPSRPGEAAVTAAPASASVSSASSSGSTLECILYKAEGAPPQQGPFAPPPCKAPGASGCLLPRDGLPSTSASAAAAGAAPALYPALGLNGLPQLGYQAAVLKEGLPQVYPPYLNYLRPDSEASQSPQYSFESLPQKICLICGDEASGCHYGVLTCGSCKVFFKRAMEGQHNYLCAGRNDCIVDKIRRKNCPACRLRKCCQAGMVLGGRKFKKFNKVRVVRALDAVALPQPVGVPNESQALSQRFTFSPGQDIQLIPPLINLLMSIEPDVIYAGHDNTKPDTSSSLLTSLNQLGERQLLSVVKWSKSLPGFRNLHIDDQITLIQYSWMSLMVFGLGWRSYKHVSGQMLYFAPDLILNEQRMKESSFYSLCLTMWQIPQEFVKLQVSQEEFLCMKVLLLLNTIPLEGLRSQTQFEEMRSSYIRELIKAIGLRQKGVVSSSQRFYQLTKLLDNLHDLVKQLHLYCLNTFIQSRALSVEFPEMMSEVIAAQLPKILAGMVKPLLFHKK
Briefly: Inhibition of human progesterone receptor.

The target in a further experiment is T3, Androgen receptor (Homo sapiens, UniProt P10275).
T3 sequence (P10275 whole entry): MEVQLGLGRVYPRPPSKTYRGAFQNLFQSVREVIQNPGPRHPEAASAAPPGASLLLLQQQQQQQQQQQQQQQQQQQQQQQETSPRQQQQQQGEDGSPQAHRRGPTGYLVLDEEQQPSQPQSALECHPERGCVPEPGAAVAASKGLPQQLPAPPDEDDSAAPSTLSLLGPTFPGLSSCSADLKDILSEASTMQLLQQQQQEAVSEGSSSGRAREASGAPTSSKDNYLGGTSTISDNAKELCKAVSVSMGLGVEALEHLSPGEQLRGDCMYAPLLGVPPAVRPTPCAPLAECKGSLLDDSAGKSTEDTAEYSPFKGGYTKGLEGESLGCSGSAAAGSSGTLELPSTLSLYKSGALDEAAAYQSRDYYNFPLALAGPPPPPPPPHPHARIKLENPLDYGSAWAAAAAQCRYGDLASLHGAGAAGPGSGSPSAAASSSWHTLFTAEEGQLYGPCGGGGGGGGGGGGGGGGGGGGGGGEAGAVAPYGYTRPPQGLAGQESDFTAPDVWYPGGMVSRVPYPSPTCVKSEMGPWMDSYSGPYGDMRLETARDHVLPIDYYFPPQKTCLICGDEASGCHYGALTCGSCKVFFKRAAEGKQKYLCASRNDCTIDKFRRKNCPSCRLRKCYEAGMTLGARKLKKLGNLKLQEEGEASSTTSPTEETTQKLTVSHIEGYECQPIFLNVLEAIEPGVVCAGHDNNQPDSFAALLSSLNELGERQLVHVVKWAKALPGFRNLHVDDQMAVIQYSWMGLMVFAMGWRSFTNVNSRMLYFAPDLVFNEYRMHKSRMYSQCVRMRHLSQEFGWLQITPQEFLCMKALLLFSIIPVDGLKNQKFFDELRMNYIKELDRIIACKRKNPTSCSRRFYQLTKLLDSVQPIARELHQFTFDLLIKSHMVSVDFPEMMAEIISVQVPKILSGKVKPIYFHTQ

Sequence of Glucocorticoid receptor (Rattus norvegicus) (P06536 whole entry, looked up): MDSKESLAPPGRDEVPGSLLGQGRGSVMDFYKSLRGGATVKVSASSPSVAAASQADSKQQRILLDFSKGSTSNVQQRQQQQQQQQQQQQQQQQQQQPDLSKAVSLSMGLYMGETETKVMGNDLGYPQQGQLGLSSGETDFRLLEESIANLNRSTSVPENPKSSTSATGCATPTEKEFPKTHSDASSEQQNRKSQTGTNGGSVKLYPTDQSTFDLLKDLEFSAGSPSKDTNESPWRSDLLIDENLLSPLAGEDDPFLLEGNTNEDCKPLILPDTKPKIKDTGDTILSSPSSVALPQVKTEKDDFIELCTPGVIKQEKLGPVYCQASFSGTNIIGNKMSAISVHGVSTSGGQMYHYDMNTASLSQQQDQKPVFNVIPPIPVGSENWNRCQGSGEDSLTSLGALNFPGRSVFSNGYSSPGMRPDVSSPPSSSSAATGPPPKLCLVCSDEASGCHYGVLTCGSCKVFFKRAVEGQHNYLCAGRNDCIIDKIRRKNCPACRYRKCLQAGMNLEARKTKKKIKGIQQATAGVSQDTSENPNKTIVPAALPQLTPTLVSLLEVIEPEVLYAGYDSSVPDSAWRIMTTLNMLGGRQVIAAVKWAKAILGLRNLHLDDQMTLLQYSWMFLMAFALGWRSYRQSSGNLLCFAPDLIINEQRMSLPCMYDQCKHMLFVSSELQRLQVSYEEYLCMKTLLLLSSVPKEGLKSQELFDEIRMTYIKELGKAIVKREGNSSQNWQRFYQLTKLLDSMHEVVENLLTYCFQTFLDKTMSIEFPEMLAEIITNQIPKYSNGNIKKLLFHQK
Description for Androgen receptor: Inhibition of human androgen receptor

Regarding `C#C[C@]1(O)CC[C@H]2[C@@H]3CCC4=CC(=O)CCC4=C3[C@@H](c3ccc(N(C)CCOC4CC[C@@]5(C)[C@@H](C4)C[C@@H](O)[C@@H]4[C@@H]5CC[C@]5(C)[C@@H]([C@H](C)CCC(=O)O)CC[C@@H]45)cc3)C[C@@]21C` (stereo not given in full), the inhibition constant Ki worked out at 0.76 nM on Glucocorticoid receptor [1] and 0.18 nM on Glucocorticoid receptor [2].
Molecule `C#C[C@]1(O)CC[C@H]2[C@@H]3CCC4=CC(=O)CCC4=C3[C@@H](c3ccc(N(C)CCOC4CC[C@@]5(C)[C@@H](C4)C[C@@H](O)[C@@H]4[C@@H]5C[C@H](O)[C@]5(C)[C@@H]([C@H](C)CCC(=O)O)CC[C@@H]45)cc3)C[C@@]21C` (stereo in doubt; form 2) registered an inhibition in experiment [3] of 72%.
On to `C#C[C@]1(O)CC[C@H]2[C@@H]3CCC4=CC(=O)CCC4=C3[C@@H](c3ccc(N(C)C(=O)CNC(=O)O[C@H]4C[C@H]5[C@@H]([C@H](O)C[C@@H]6C[C@H](O)CC[C@@]65C)[C@@H]5CC[C@H]([C@H](C)CCC(=O)O)[C@@]45C)cc3)C[C@@]21C`, for which the figures for the inhibitory constant (Ki) (at Glucocorticoid receptor [1]; on Glucocorticoid receptor [2]; in experiment [4]) were 100 nM, 6.5 nM and 500 nM, respectively.
`C#C[C@]1(O)CC[C@H]2[C@@H]3CCC4=CC(=O)CCC4=C3[C@@H](c3ccc(N(C)CCOC4CC[C@@]5(C)[C@@H](C4)C[C@@H](O)[C@@H]4[C@@H]5C[C@H](O)[C@]5(C)[C@@H]([C@H](C)CCC(=O)O)CC[C@@H]45)cc3)C[C@@]21C` (stereo in doubt; form 1): in experiment [3], the inhibition stood at 49%.
For the molecule `C#C[C@]1(O)CC[C@H]2[C@@H]3CCC4=CC(=O)CCC4=C3[C@@H](c3ccc(N(C)CCOC4CC[C@@]5(C)[C@H](CC[C@@H]6[C@@H]5CC[C@]5(C)[C@@H]([C@H](C)CCC(=O)O)CC[C@@H]65)C4)cc3)C[C@@]21C` (stereo not given in full), the Ki on Glucocorticoid receptor [1] was 2.7 nM; at Glucocorticoid receptor [2], 0.22 nM.
For `CC#C[C@]1(O)CC[C@H]2[C@@H]3CCC4=CC(=O)CC[C@]4(Cc4ccc(CCCO[C@H]5CC[C@@]6(C)[C@@H](C5)C[C@@H](O)[C@@H]5[C@@H]6C[C@H](O)[C@]6(C)[C@@H]([C@H](C)CCC(=O)O)CC[C@@H]56)cc4)C3=CC[C@@]21C`, the Inhibition in experiment [5] is listed as -16%. For the same molecule, the inhibition in experiment [3] stood at 5%.
Regarding `CC#C[C@]1(O)CC[C@H]2[C@@H]3CCC4=CC(=O)CCC4=C3[C@@H](c3ccc(N(C)CCO[C@H]4CC[C@@]5(C)[C@@H](C4)C[C@@H](O)[C@@H]4[C@@H]5C[C@H](O)[C@]5(C)[C@@H]([C@H](C)CCC(=O)NCCS(=O)(=O)O)CC[C@@H]45)cc3)C[C@@]21C`, the Inhibition in experiment [5] was -6%.
As for `C#C[C@]1(O)CC[C@H]2[C@@H]3CCC4=CC(=O)CCC4=C3[C@@H](c3ccc(N(C)CCOC4CC[C@@]5(C)[C@H](CC[C@@H]6[C@@H]5C[C@H](O)[C@]5(C)[C@@H]([C@H](C)CCC(=O)O)CC[C@@H]65)C4)cc3)C[C@@]21C` (stereo not given in full), the results for the Ki on Glucocorticoid receptor [1] and on Glucocorticoid receptor [2] were 0.38 nM and 0.16 nM, respectively. For the same molecule, the Inhibition in experiment [5] was 22%. In addition, the inhibition in experiment [3] amounted to 69%.
The like results for `C#C[C@]1(O)CC[C@H]2[C@@H]3CCC4=CC(=O)CCC4=C3[C@@H](c3ccc(N(C)CCC[C@@]4(O)CC[C@@]5(C)[C@H](C[C@@H](O)[C@@H]6[C@@H]5C[C@H](O)[C@]5(C)[C@@H]([C@H](C)CCC(=O)O)CC[C@@H]65)C4)cc3)C[C@@]21C` were, in that order, 4.3 nM, 0.11 nM, 0% and 6%.
`C#C[C@]1(O)CC[C@H]2[C@@H]3CCC4=CC(=O)CCC4=C3[C@@H](c3ccc(N(C)CCNC(=O)O[C@@H]4C[C@@H]5CC(O)CC[C@]5(C)[C@H]5C[C@H](O)[C@]6(C)[C@@H]([C@H](C)CCC(=O)O)CC[C@H]6[C@H]45)cc3)C[C@@]21C` (stereo not given in full): the Ki on Progesterone receptor worked out at 4.6 nM; on Glucocorticoid receptor [1] it was 37 nM; at Glucocorticoid receptor [2], 1.2 nM; on Androgen receptor, 18 nM; in experiment [4], 730 nM.
